This note sets out measurements from US8815849B2, “Hetero-bicyclic derivatives as HCV inhibitors” (Janssen R&D Ireland, priority 2010, dated 2014).

Like-named read-outs stand apart in the source and are kept apart here.

The test system of one data set is LLC-MDR1 monolayers. Format: in vitro ADME. To be noted: pig, LLC-PK1, 120 min. On the procedure:
Assay Description for the Measurement of Transepithelial Transport of Test Compounds Through LLC-MDR1 Monolayers
The integrity of the cellular monolayer was assessed in each incubation well through the inclusion of the fluorescent, low permeability marker compound, Fluorescein.
In detail, LLC-MDR1 cells (LLC-PK1 cells stably transduced with MDR1 in a trans-well system) were seeded on 24-well cell culture inserts (Millicell®-PCF, 0.4 μm, 13 mm Ø, 0.7 cm^2) at 400 000 cells/cm^2. Cell culture medium consists of Medium 199 supplemented with 10% Fetal Bovine Serum (FBS) and 100 U/mL Penicillin/streptomycin and was replaced the day after seeding and the day before the experiment. The transport experiment was performed 5 days after seeding. On the day of the experiment, solutions of the test compounds were applied to the apical side of the monolayers to assess transport in the AtoB direction,. The medium used in the assay was (OPTI-MEM (1×) (GIBCO) with 1 w/v % Bovine Serum Albumin. Inserts were incubated at 37° C. in a humidified incubator containing 5% CO2. Samples from the acceptor and donor compartments were collected after an incubation time of 120 min, to assess the permeability and to allow estimation of the test compound recovery during the experiment, respectively. Transport experiments were performed in triplicate. Absolute test compound concentrations were measured using LC-MS/MS and quantified via a calibration curve.

Data set [1] relates to HCV replicon (Huh-Luc cells, NS3-NS5B regions of HCV type 1b). In words: HCV replicon assay (Huh-7 luc/neo, luciferase readout). Type of data set: cell-based. To be noted: Huh-Luc replicon cells, three days incubation, luciferase activity, average if tested more than once, read-out: HCV-REP-HUH7LUC_EC50. From the text: The in vitro antiviral activity against HCV of the compounds of formula I can be tested in a cellular HCV replicon system based on Lohmann et al. (1999) Science 285:110-113, with the further modifications described by Krieger et al. (2001) Journal of Virology 75: 4614-4624 (incorporated herein by reference), which is further exemplified in the examples section. This model, while not a complete infection model for HCV, is widely accepted as the most robust and efficient model of autonomous HCV RNA replication currently available. It will be appreciated that it is important to distinguish between compounds that specifically interfere with HCV functions from those that exert cytotoxic or cytostatic effects in the HCV replicon model, and as a consequence cause a decrease in HCV RNA or linked reporter enzyme concentration. Assays are known in the field for the evaluation of cellular cytotoxicity based for example on the activity of mitochondrial enzymes using fluorogenic redox dyes such as resazurin. Furthermore, cellular counter screens exist for the evaluation of non-selective inhibition of linked reporter gene activity, such as firefly luciferase. Appropriate cell types can be equipped by stable transfection with a luciferase reporter gene whose expression is dependent on a constitutively active gene promoter, and such cells can be used as a counter-screen to eliminate non-selective inhibitors.
The compounds of formula (I) were examined for inhibitory activity in the HCV replicon. This cellular assay is based on a bicistronic expression construct, as described by Lohmann et al. (1999) Science vol. 285 pp. 110-113 with modifications described by Krieger et al. (2001) Journal of Virology 75: 4614-4624, in a multi-target screening strategy.
The assay utilized the stably transfected cell line Huh-7 luc/neo (hereafter referred to as Huh-Luc). This cell line harbors an RNA encoding a bicistronic expression construct comprising the wild type NS3-NS5B regions of HCV type 1b translated from an
Internal Ribosome Entry Site (IRES) from encephalomyocarditis virus (EMCV), preceded by a reporter portion (FfL-luciferase), and a selectable marker portion (neo^R, neomycine phosphotransferase). The construct is flanked by 5′ and 3′ NTRs (non-translated regions) from HCV type 1b. Continued culture of the replicon cells in the presence of G418 (neo^R) is dependent on the replication of the HCV RNA. The stably transfected replicon cells that express HCV RNA, which replicates autonomously and to high levels, encoding inter alia luciferase, were used for screening the antiviral compounds.
The replicon cells were plated in 384 well plates in the presence of the test and control compounds which were added in various concentrations. Following an incubation of three days, HCV replication was measured by assaying luciferase activity (using standard luciferase assay substrates and reagents and a Perkin Elmer ViewLux™ ultraHTS microplate imager). Replicon cells in the control cultures have high luciferase expression in the absence of any inhibitor. The inhibitory activity of the compound on luciferase activity was monitored on the Huh-Luc cells, enabling a dose-response curve for each test compound. EC50 values were then calculated, which represent the amount of compound required to decrease the level of detected luciferase activity by 50%, or more specifically, to reduce the ability of the genetically linked HCV replicon RNA to replicate.
Where a compound of formula (I) was tested more than once in the replicon assay, the average of all test results is given in this Table 1.
Background: A replicon is a self-replicating genome or part of one, used to study replication in cells.

`COC(=O)N[C@H](C(=O)N1CCCC1c1cc(=O)c2ccc(-c3ccc4cc(-c5cnc([C@@H]6CCCN6C(=O)[C@@H](NC(=O)OC)C(C)C)[nH]5)ccc4c3)cc2[nH]1)C(C)C` (single isomer, unassigned) [Compound 13b]: the “A->B permeability (Papp × 10^−6 cm/sec) in the presence the P-gp inhibitor GF120918” value with LLC-MDR1 monolayers was 0.5 10^−6 cm/sec. Moreover, the EC50 in data set [1] (Hepatitis C virus, Huh-7, 72 h) was 0.022 nM.
The like results for `COC(=O)N[C@H](C(=O)N1CCCC1c1[nH]c2cc(-c3ccc4cc(-c5cnc([C@@H]6CCCN6C(=O)[C@@H](NC(=O)OC)C(C)C)[nH]5)ccc4c3)ccc2c(=O)c1C)C(C)C` (single isomer, unassigned) [Compound 102a] were, in that order, <0.6 10^−6 cm/sec and 0.069 nM.
Turning to `COC(=O)N[C@H](C(=O)N1CCCC1c1[nH]c2cc(-c3ccc4cc(-c5cnc([C@@H]6CCCN6C(=O)[C@@H](NC(=O)OC)C(C)C)[nH]5)ccc4c3)ccc2c(=O)c1F)C(C)C` (single isomer, unassigned) [Compound 110a], the “A->B permeability (Papp × 10^−6 cm/sec) in the presence the P-gp inhibitor GF120918” value with LLC-MDR1 monolayers is on record as 0.4 10^−6 cm/sec. In addition, the EC50 in data set [1] was 0.048 nM.
The corresponding values for `COC(=O)N[C@H](C(=O)N1CCCC1c1[nH]c2cc(-c3ccc4cc(-c5cnc([C@@H]6CCCN6C(=O)[C@@H](NC(=O)OC)C(C)C)[nH]5)ccc4c3)ccc2c(=O)c1F)C(C)C` (single isomer, unassigned) [Compound 110b] are 2.3 10^−6 cm/sec and 0.48 nM.
`CC[C@H](C)[C@H](NC(=O)OC)C(=O)N1CCCC1c1cc(=O)c2ccc(-c3ccc4cc(-c5cnc([C@@H]6CCCN6C(=O)[C@@H](NC(=O)OC)C(C)C)[nH]5)ccc4c3)cc2[nH]1` (some centres unmarked) [Compound 13-A3]: the “A->B permeability (Papp × 10^−6 cm/sec) in the presence the P-gp inhibitor GF120918” value in the data set on LLC-MDR1 monolayers is recorded as 0.9 10^−6 cm/sec.
For the compound `COC(=O)N[C@H](C(=O)N1CCC[C@H]1c1ncc(-c2ccc3cc(-c4ccc5nc([C@@H]6CCCN6C(=O)[C@@H](NC(=O)OC)C(C)C)[nH]c(=O)c5c4)ccc3c2)[nH]1)C(C)C` [Compound 35], the “A->B permeability (Papp × 10^−6 cm/sec) in the presence the P-gp inhibitor GF120918” value in the data set with LLC-MDR1 monolayers is 5.0 10^−6 cm/sec. Further, the EC50 in data set [1] (Hepatitis C virus, Huh-7, 72 h) turned out to be 0.64 nM.
The like results for `COC(=O)N[C@H](C(=O)N1CCC[C@H]1c1ncc(-c2ccc3cc(-c4ccc5c(=O)[nH]c([C@@H]6CCCN6C(=O)[C@H](NC(=O)OC(C)(C)C)c6ccccc6)nc5c4)ccc3c2)[nH]1)C(C)C` [Compound 44-1] were, in that order, 2.7 10^−6 cm/sec and 8.1 nM.
The corresponding values for `COC(=O)N[C@H](C(=O)N1CCC[C@H]1c1ncc(-c2ccc3cc(-c4ccc5c(=O)[nH]c([C@@H]6CCCN6C(=O)[C@H](NC(=O)OC)c6ccccc6)nc5c4)ccc3c2)[nH]1)C(C)C` [Compound 44-2] are 5.5 10^−6 cm/sec and 0.084 nM.
The like results for `COC(=O)N[C@H](C(=O)N1CCC[C@H]1c1ncc(-c2ccc3cc(-c4ccc5c(=O)[nH]c([C@@H]6CCCN6C(=O)[C@@H](NC(=O)OC)C(C)C)nc5c4)ccc3c2)[nH]1)C(C)C` [Compound 44] were, in that order, 6.9 10^−6 cm/sec and 0.005 nM.
Turning to `COC(=O)N[C@H](C(=O)N1CCC[C@H]1c1ncc(-c2ccc3cc(-c4ccc5c(=O)[nH]c([C@@H]6CC(C)(C)CN6C(=O)[C@@H](NC(=O)OC)C(C)C)nc5c4)ccc3c2)[nH]1)C(C)C` [Compound 50], the “A->B permeability (Papp × 10^−6 cm/sec) in the presence the P-gp inhibitor GF120918” value in the data set with LLC-MDR1 monolayers is reported as 5.8 10^−6 cm/sec. The EC50 in data set [1] (Hepatitis C virus, Huh-7, 72 h) came to 0.006 nM.
The like results for `COC(=O)N[C@H](C(=O)N1CCC[C@H]1C1=Nc2cc(-c3ccc4cc(-c5cnc([C@@H]6CCCN6C(=O)[C@@H](NC(=O)OC)C(C)C)[nH]5)ccc4c3)ccc2C(C)(C)N1)C(C)C` [Compound 61] were, in that order, 4.8 10^−6 cm/sec and 0.017 nM.
The corresponding values for `COC(=O)N[C@H](C(=O)N1CCC[C@H]1C1=Nc2cc(-c3ccc4cc(-c5cnc([C@@H]6CCCN6C(=O)[C@@H](NC(=O)OC)C(C)C)[nH]5)ccc4c3)ccc2C2(COC2)N1)C(C)C` [Compound 70] are 7.8 10^−6 cm/sec and 0.009 nM.
The like results for `COC(=O)N[C@H](C(=O)N1CCCCC1c1cc(=O)c2ccc(-c3ccc4cc(-c5cnc([C@@H]6CCCN6C(=O)[C@@H](NC(=O)OC)C(C)C)[nH]5)ccc4c3)cc2[nH]1)C(C)C` (some centres unmarked) [Compound 76] were, in that order, 3.1 10^−6 cm/sec and 0.034 nM.
On to `COC(=O)N[C@H](C(=O)N1CCC[C@H]1C1=NS(=O)(=O)c2ccc(-c3ccc4cc(-c5cnc([C@@H]6CCCN6C(=O)[C@@H](NC(=O)OC)C(C)C)[nH]5)ccc4c3)cc2N1)C(C)C` [Compound 84], for which the “A->B permeability (Papp × 10^−6 cm/sec) in the presence the P-gp inhibitor GF120918” value in the data set with LLC-MDR1 monolayers is listed as 0.4 10^−6 cm/sec. Further, the EC50 in data set [1] (Hepatitis C virus, Huh-7, 72 h) stood at 0.034 nM.
The like results for `COC(=O)N[C@H](C(=O)N1CCC[C@H]1c1ncc(-c2ccc3cc(-c4ccc5c(c4)NC([C@@H]4CCCN4C(=O)[C@H](NC(=O)OC)c4ccccc4)=NS5(=O)=O)ccc3c2)[nH]1)C(C)C` [Compound 87] were, in that order, 1.0 10^−6 cm/sec and 0.008 nM.
